Measured values reported in patent US20230165788A1, “MULTI-DRUG FORMULATIONS FOR SUBCUTANEOUS BIODEGRADABLE RESERVOIR DEVICE” (Research Triangle Institute, priority 2020, published 2023).

How the values were obtained:
[1] = beagle dogs, cited from earlier work
[2] = non-polymeric refillable implant, rhesus macaques; cited from earlier work
[3] = Evaluation of Elvitegravir for use in the device: solubility and dose; assay type: physicochemical
From the text: (§1) The active agent formulation includes more than one active agent and an excipient. One or more of the more than one active agent can be one or a combination of a therapeutic, a preventative, a prophylactic and/or a contraceptive. […] Not all active agents are amenable for use in the described device. Active agents having sufficient aqueous solubility and stability and dosing requirements and that are amenable to size parameters of the device are suitable for use in the described device. Moreover, in embodiments, the active agents retain a high level of purity that is both safe and efficacious to the user throughout the intended dosage duration and are not susceptible to immediate degradation caused by environmental contents (e.g., body fluids, physiological temperature). In additional embodiments, the solubility of active agents within potential excipients can range from 0.1-50 mg/mL.

[4] = system: HIV; experiment: Evaluation of Elvitegravir for use in the device: potency
From the text: as §1

CC(C)OC(=O)[C@H](C)N[P@](=O)(CO[C@H](C)Cn1cnc2c(N)ncnc21)Oc1ccccc1 [TAF, tenofovir alafenamide]
duration of drug delivery ([1]; subdermal silicone implant with PVA-coated channels): 40 days | adverse events ([1]; subdermal silicone implant): without observed adverse events | period of sustained levels of tenofovir diphosphate (TFV-DP) in PBMCs [2]: 83 days

Nc1nc(=O)n([C@@H]2CS[C@H](CO)O2)cc1F [FTC, emtricitabine]
period of sustained levels of FTC-triphosphate (FTC-TP) [2]: 28 days

COc1cc2c(cc1Cc1cccc(Cl)c1F)c(=O)c(C(=O)O)cn2[C@H](CO)C(C)C [Elvitegravir]
solubility [3]: relatively low solubility | potency [4]: suboptimal potency
